Laboratory results published in patent publication US8420574B2, “Plant growth enhancement with combinations of PESA and herbicides” (Valent BioSciences Corporation, priority 2009, dated 2013).
Counter-ions that a name gives are not always drawn.

System: rice cv. Nipponbare
Test: Hydroponic assay; total root length and shoot length
Format: in vivo
Conditions: for Shoot Length / Total Root Length: 40 ppm PESA salt
Protocol: Where hydroponically-grown rice was used in studies, the seeds were pre-incubated in water at 30 C for 2 days to stimulate germination. Three seeds were placed on a float and cultivated hydroponically in a test tube (25 mm×200 mm), which contained 50 ml of Kimura B nutrient solution at ⅛th strength supplemented with herbicides and PESA sodium salt. The exposure of the roots to the light was prevented by wrapping the tubes with aluminum foil. The rice seedlings were incubated in a growth cabinet at 25 C under continuous light for 14 days, and the total root length and shoot length were measured. Total root length (cm) was the root length/plant determined following scanning with WinRhizo software (Regent Instruments INC, Toronto, Canada).

[1] = 40 ppm PESA salt with 0.1 ppm dicamba
[2] = 40 ppm PESA salt with 0.1 ppm imazosulfuron
[3] = 40 ppm PESA salt with 1 ppm flumioxazin

O=C(O)CCC(=O)NCCc1ccccc1 [PESA salt, N-(2-phenylethyl)succinamic acid]
protection of roots from herbicide [1]: largely protected the roots from the negative effects of dicamba | protection of shoots from herbicide [1]: largely protected the shoots from the negative effects of dicamba | total root length increased by, as compared with untreated control [1]: 61% | protection of roots from herbicide [2]: largely protected the roots from the negative effects of imazosulfuron | total root length increased by, as compared with untreated control [2]: 87% | protection of roots from herbicide [3]: protected the roots from the negative effects of flumioxazin | protection of shoots from herbicide [3]: largely protected the shoots from the negative effects of flumioxazin | protection of shoots from herbicide (40 ppm PESA salt with 1 ppm imazosulfuron): largely protected the shoots from the negative effects of the herbicide | protection of roots from herbicide (40 ppm PESA salt with 3 ppm clodinafop-propargyl): protected the roots from the negative effects of the herbicide | Shoot Length (0 ppm clodinafop-propargyl, untreated 10.6): 13.3 cm | Total Root Length (0 ppm clodinafop-propargyl, untreated 52.1): 193.9 cm | Shoot Length (0 ppm dicamba, untreated 11.4): 15.1 cm | Total Root Length (0 ppm dicamba, untreated 44.9): 121.9 cm | Shoot Length (0 ppm flumioxazin, untreated 10.6): 13.3 cm | Total Root Length (0 ppm flumioxazin, untreated 52.1): 193.9 cm | Shoot Length (0 ppm imazosulfuron, untreated 11.4): 15.1 cm | Total Root Length (0 ppm imazosulfuron, untreated 44.9): 121.9 cm | Shoot Length (0.01 ppm dicamba, untreated 11.4): 15.1 cm | Total Root Length (0.01 ppm dicamba, untreated 44.9): 155.4 cm | Shoot Length (0.01 ppm imazosulfuron, untreated 11.4): 14.5 cm | Total Root Length (0.01 ppm imazosulfuron, untreated 44.9): 169.8 cm | Shoot Length (0.1 ppm dicamba, untreated 11.4): 12.5 cm | Total Root Length (0.1 ppm dicamba, untreated 44.9): 72.5 cm | Shoot Length (0.1 ppm flumioxazin, untreated 10.6): 12.3 cm | Total Root Length (0.1 ppm flumioxazin, untreated 52.1): 132.6 cm | Shoot Length (0.1 ppm imazosulfuron, untreated 11.4): 13.2 cm | Total Root Length (0.1 ppm imazosulfuron, untreated 44.9): 83.8 cm | Shoot Length (0.3 ppm clodinafop-propargyl, untreated 10.6): 14.3 cm | Total Root Length (0.3 ppm clodinafop-propargyl, untreated 52.1): 202.6 cm | Shoot Length (0.3 ppm flumioxazin, untreated 10.6): 10.3 cm | Total Root Length (0.3 ppm flumioxazin, untreated 52.1): 102.8 cm | Shoot Length (1 ppm clodinafop-propargyl, untreated 10.6): 13.6 cm | Total Root Length (1 ppm clodinafop-propargyl, untreated 52.1): 110.5 cm | Shoot Length (1 ppm dicamba, untreated 11.4): 3.6 cm | Total Root Length (1 ppm dicamba, untreated 44.9): 9.2 cm | Shoot Length (1 ppm flumioxazin, untreated 10.6): 7.5 cm | Total Root Length (1 ppm flumioxazin, untreated 52.1): 53 cm | Shoot Length (1 ppm imazosulfuron, untreated 11.4): 7.9 cm | Total Root Length (1 ppm imazosulfuron, untreated 44.9): 13.8 cm | Shoot Length (3 ppm clodinafop-propargyl, untreated 10.6): 11.8 cm | Total Root Length (3 ppm clodinafop-propargyl, untreated 52.1): 44.3 cm | Shoot Length (3 ppm flumioxazin, untreated 10.6): 6.5 cm | Total Root Length (3 ppm flumioxazin, untreated 52.1): 24.4 cm
